Source: patent publication US12415830B2, “Steroid compound, and use thereof and preparation method therefor” (Chengdu Kanghong Pharmaceutical Co Ltd, priority 2019, dated 2025)

Tested on: mice
Assay: Light-dark shuttle box anti-anxiety test
Assay type: in vivo
Details: 5 consecutive days, 30 min after last administration, male mice
Excerpt: 57.3.1 light-dark shuttle box: The light-dark shuttle box is a standard and well characterized assay for anxiolytic effects of the exemplary compounds. Mice naturally avoid the light of the box because light makes mice evasive and stressful, but the exploration habit of mice also prompts mice to try to explore a bright box. Increased time on the light of the box by the exemplary compounds reflects an anxiolytic effect on mice. The experimental mice were randomly divided into 5 groups based on weight, including a negative control group, two different dosage groups (1 mg/kg and 3 mg/kg) of the tested compounds (KH004 or KH022), and every group had 10 male mice. Mice were administered with corresponding dosage for tested intervention for 5 consecutive days in advance, and conducting anxiolytic experiments after 30 min of the last administration. The retention time in the light box was selected as the main index for evaluating the anti-anxiety effect of KH004 and KH022.

SMILES	The retention time in the light box (1.0 mg/kg) [%]	The retention time in the light box (3.0 mg/kg) [%]
C[C@]12CC[C@@H](O)C[C@@H]1CC[C@@H]1[C@@H]2CC[C@]2(C)[C@@H](C(=O)Cn3ncnn3)CCC[C@@H]12 [KH004]	50.30 ± 6.89	53.91 ± 9.37
C[C@@]1(O)CC[C@@]2(C)[C@@H](CC[C@@H]3[C@@H]2CC[C@]2(C)[C@@H](C(=O)Cn4ncnn4)CCC[C@@H]32)C1 [KH022]	50.00 ± 4.59	56.66 ± 7.96
